From patent US20260207717A1, “METHODS FOR TREATING INFANTILE-ONSET POMPE DISEASE IN PEDIATRIC PATIENTS” (Amicus Therapeutics, Inc., priority 2022, published 2026)

Tests used:
[1] = system: pediatric patient with infantile Pompe disease; assay: Example 16: pediatric IOPD patient switched from Myozyme to ATB200/AT2221; format: in vivo, human
Source text: A patient with severe infantile Pompe disease presented. The patient underwent a comprehensive physical examination, measurement of GAA enzyme activity, genetic testing of the GAA gene and muscle biopsy to establish the diagnosis.
The patient received the high-dose enzyme replacement therapy with Myozyme after diagnosis. The patient responded very poorly to therapy. Due to rapidly progressing Pompe disease and inadequate response to therapy, the patient's survival was at risk. For the patient, the opportunity arose to receive the new ATB200/AT2221 ERT via a compassionate use/Expanded Access Program (EAP).
The index patient has regular measurement of the urinary Glc4-levels since the change of the ERT to ATB200. The Glc4-levels were determined by an established method from the Duke University. The analysis of Glc4 is standardized as a butyl-4-aminobenzoate derivative using [^13C6] Glc4 as the internal standard (IS). The measurement is performed as ultra-performance liquid chromatography-tandem mass spectrometry (UPLC-MS/MS). The Glc4-values are then normalized to creatinine.
The patient presented with IOPD at 6 months and was started on the standard dose of Myozyme (20 mg/kg/bi-weekly). Due to the inadequate response to therapy, the dose was doubled just one month after the start of therapy in form of a weekly administration of Myozyme. […] But the cardiological situation deteriorated progressively.
Therefore, just three months after initiation of therapy, the dose was again doubled to 40 mg/kg/weekly, so the patient received a total of four times the standard dose. With the intensification of ERT and cardiac therapy, the patient's condition initially stabilized. Nevertheless, over the next few months, the patient's general condition steadily deteriorated, and the patient decompensated, especially respiratory.
The patient was switched from Myozyme to ATB200/AT2221 after eight months of insufficient Myozyme therapy response. The patient was […] at the time of the therapy switch. The new therapy (via EAP) was initiated with the oral administration of 30 mg premedication AT2221 (Miglustat) one hour prior to enzyme administration. ATB200 was administered at a bi-weekly interval at a dosage of 20 mg/kg. In the further course of treatment, the dosage of premedication and ERT was repeatedly adjusted and optimized (see Table 22). Some actual dosages in Table 22 (e.g., 37 mg/kg and 34.5 mg/kg at 32 and 38 months, respectively) varied from the target dose (e.g., 30 mg/kg) to avoid waste of extra material left in vials.
The Gross Motor Function Measure 66 (GMFM 66) is used to quantify a patients' motor skills. The GMFM 66 is a worldwide standardized test developed and validated for children with cerebral palsy to measure the development of gross motor function over time. During testing 66 items are examined and a score from 0 to 100 points is possible.

[2] = Thermostability assay using SYPRO Orange; format: physicochemical
Experimental: The stability of ATB200 in acidic or neutral pH buffers was evaluated in a thermostability assay using SYPRO Orange, as the fluorescence of the dye increases when proteins denature. […] As summarized in Table 10, the addition of miglustat increased the melting temperature (Tm) of ATB200 by nearly 10° C.

pediatric IOPD patients = assay: Tolerability and accumulation in 3 pediatric IOPD patients of the EAP; format: in vivo, human; conditions: 30 mg/kg cipaglucosidase alfa in combination with miglustat, 3 pediatric IOPD patients in the EAP
Experimental: The cipaglucosidase alfa dose of 30 mg/kg being evaluated in this protocol was determined from population PK modeling and simulation analyses that included pooled data from 96 adults and 11 pediatric subjects dosed at 20, 25, and 30 mg/kg, including 3 pediatric IOPD patients from the Expanded Access Program (EAP) (ages 1 to 3 years) at the 30 mg/kg dose level. The 30 mg/kg dose level in combination with additional effect from miglustat provided exposures that are well within the safety margin and multiples of exposure established by the juvenile toxicology no-observed-adverse effect-level (NOAEL) of 150 mg/kg.
This frequency of dosing is based on the systemic clearance of the cipaglucosidase alfa and miglustat, and the acuity/severity of disease in IOPD, as well as observations in 3 IOPD patients enrolled in the EAP (ERT-experienced patients in clinical decline).
A weekly frequency of 30 mg/kg cipaglucosidase alfa and miglustat administration will be evaluated in this study. A weekly 30 mg/kg cipaglucosidase alfa and miglustat dose has been administered in pediatric subjects with IOPD from the EAP. […] The rationale for weekly dosing in both cohorts is based on evidence supporting improved survival for IOPD patients receiving weekly dosing of standard of care ERT compared to every other week dosing (Ditters, Huidekper et al, 2021). […]

CIMPR = CIMPR (Homo sapiens, UniProt P11717); assay: CIMPR plate binding assay
Experimental: In addition to having a greater percentage of rhGAA that can bind to the CIMPR, it is important to understand the quality of that interaction. LUMIZYME® and ATB200 receptor binding was determined using a CIMPR plate binding assay. Briefly, CIMPR-coated plates were used to capture GAA. Varying concentrations of rhGAA were applied to the immobilized receptor and unbound rhGAA was washed off. The amount of remaining rhGAA was determined by GAA activity. […] For LUMIZYME®, there is on average only 10% of molecules having a bis-phosphorylated N-glycan. In contrast, on average every rhGAA molecule in ATB200 has at least one bis-phosphorylated N-glycan.
N-glycan analysis via MALDI-TOF mass spectrometry confirmed that on average each ATB200 molecule contains at least one natural bis-M6P N-glycan structure.

[3] = system: normal and Pompe fibroblast cell lines; assay: Cellular uptake of rhGAA (internalized GAA by 4MU-α-Glucoside hydrolysis); format: cell-based
Experimental: The relative cellular uptake of ATB200 and LUMIZYME® rhGAA were compared using normal and Pompe fibroblast cell lines. Comparisons involved 5-100 nM of ATB200 according to the disclosure with 10-500 nM conventional rhGAA product LUMIZYME®. After 16-hr incubation, external rhGAA was inactivated with TRIS base and cells were washed 3-times with PBS prior to harvest. Internalized GAA measured by 4MU-α-Glucoside hydrolysis and was graphed relative to total cellular protein and the results appear in FIGS. 11A-11C.
ATB200 was also shown to be efficiently internalized into cells. […] ATB200 saturates cellular receptors at about 20 nM, while about 250 nM of LUMIZYME® is needed to saturate cellular receptors.

Sequence of CIMPR (P11717 41-2491, species assumed): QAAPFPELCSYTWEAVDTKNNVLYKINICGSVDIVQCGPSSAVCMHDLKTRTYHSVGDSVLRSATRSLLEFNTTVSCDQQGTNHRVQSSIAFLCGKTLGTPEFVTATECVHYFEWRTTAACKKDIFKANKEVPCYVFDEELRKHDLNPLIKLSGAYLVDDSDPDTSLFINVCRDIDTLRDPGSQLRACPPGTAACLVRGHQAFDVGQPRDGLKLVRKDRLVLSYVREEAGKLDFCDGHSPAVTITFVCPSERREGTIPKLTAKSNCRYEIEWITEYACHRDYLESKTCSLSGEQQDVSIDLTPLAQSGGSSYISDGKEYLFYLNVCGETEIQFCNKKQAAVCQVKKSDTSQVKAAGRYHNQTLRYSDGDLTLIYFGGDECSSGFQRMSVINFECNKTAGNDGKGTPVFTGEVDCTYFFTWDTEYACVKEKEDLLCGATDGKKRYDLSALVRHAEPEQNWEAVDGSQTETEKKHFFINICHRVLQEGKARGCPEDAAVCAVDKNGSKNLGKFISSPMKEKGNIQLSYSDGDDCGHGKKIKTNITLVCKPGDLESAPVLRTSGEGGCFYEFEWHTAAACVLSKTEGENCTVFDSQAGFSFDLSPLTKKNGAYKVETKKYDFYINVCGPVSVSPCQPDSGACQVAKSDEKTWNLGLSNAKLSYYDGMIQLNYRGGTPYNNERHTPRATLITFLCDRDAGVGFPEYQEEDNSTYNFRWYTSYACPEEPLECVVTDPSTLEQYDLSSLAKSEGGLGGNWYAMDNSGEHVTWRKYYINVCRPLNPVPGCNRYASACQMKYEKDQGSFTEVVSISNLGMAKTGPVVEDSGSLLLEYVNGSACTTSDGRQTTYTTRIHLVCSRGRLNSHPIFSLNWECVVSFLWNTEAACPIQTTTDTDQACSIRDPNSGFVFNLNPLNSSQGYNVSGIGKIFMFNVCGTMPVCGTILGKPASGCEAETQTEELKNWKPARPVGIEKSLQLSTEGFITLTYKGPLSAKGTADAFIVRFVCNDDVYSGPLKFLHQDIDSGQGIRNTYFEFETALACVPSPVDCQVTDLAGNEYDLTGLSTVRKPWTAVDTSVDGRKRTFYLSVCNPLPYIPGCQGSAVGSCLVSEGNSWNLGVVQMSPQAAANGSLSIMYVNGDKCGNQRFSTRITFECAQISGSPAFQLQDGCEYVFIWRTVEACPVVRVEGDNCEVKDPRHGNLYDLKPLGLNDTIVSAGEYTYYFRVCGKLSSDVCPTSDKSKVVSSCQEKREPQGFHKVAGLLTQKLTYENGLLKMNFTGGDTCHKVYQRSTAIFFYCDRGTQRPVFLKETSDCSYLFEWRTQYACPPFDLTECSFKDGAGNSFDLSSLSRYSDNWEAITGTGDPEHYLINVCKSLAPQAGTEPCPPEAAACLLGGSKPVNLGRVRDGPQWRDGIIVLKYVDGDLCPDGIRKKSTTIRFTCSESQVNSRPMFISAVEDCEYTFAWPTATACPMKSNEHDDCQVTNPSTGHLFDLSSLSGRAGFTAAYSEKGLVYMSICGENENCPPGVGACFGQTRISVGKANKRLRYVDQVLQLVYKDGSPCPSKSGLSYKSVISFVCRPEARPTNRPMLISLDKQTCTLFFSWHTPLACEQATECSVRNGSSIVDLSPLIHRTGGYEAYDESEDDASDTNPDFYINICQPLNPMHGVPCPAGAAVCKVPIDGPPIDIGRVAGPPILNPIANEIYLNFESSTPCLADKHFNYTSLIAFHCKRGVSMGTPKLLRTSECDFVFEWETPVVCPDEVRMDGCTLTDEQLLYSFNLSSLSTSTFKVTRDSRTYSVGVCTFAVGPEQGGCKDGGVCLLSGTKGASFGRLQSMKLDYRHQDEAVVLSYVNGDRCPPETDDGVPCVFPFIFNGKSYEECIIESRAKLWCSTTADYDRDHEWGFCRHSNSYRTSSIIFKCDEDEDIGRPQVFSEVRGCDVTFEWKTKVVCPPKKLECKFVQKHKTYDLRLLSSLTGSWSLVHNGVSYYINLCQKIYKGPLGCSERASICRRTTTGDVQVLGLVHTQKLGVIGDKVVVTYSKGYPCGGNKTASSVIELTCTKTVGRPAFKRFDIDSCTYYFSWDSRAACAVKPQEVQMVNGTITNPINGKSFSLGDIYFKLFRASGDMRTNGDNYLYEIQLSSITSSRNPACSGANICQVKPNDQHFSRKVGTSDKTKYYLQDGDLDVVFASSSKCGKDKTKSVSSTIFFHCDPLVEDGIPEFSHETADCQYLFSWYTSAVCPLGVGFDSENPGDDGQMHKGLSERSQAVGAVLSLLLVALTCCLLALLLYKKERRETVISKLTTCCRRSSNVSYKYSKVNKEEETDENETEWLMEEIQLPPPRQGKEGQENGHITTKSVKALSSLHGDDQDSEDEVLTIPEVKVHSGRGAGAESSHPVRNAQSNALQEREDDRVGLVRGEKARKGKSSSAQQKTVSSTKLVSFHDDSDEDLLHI

## ATB200: recombinant human acid α-glucosidase with a high content of N-glycans bearing mono-M6P and bis-M6P, produced from a GA-ATB200 cell line
[1]; 16.5 months of ATB200 therapy
  GMFM 66 score: 17.0 points
[1]; 24 months of ATB200 therapy
  GMFM 66 score: 24.0 points
[1]; 28 months of ATB200 therapy
  GMFM 66 score: 29.3 points
[1]; biweekly 20 mg/kg
  urinary Glc4 levels: remained relatively constant
[1]; dose increase to 25 mg/kg/bi-weekly and switch to weekly 30 mg/kg at 19 months of age
  urinary Glc4 levels: increase
[1]; since 32 months of age (FIG. 71)
  urinary Glc4 levels: decrease of the values to the initial level
[2]; pH 5.2
  Tm: 67.3 °C
[2]; pH 7.4
  Tm: 56.2 °C
  increase of melting temperature (Tm) by addition of miglustat: ~10 °C
[2]; pH 7.4 + 10 μM miglustat
  Tm: 61.6 °C
[2]; pH 7.4 + 30 μM miglustat
  Tm: 62.9 °C
[2]; pH 7.4 + 100 μM miglustat
  Tm: 66.0 °C
Pediatric IOPD patients
  tolerability: generally well-tolerated
CIMPR; M6P receptor plate binding assays
  Kd: 2 to 4 nM
CIMPR; compared with LUMIZYME (FIG. 10A)
  binding to CIMPR: significantly better
[3]; 16-hr incubation
  concentration that saturates cellular receptors: about 20 nM
[3]; compared with LUMIZYME
  internalization into normal and Pompe fibroblast cells: internalized to a greater degree
[3]; extrapolated, FIG. 11C
  uptake efficiency constant (Kuptake): 2-3 nm
